Source: US12691101B2, “Compound and method for preventing or treating of respiratory diseases comprising the same as an active ingredient” (YONSEI UNIVERSITY, UNIVERSITY - INDUSTRY FOUNDATION (UIF), priority 2019, dated 2026)

Tests used:
[1] = tested on: AN01, CFTR and ENaC ion channel activity; test: Short circuit current in HNE cells; format: cell-based, human; details: long-term treatment (48 hours)
Protocol: (A) Representative tracing of intracellular pH of treated (grey line) and IL-4 (10 ng/ml) treated HNE cells. Pendrin was inhibited by F56 ([…]). (B) The mRNA expression level of pendrin was determined at the indicated time after treatment of F56 ([…]) by real-time quantitative PCR in IL-4-treated HBE cells (mean±S.E., n=3). (C) The Cl^−/HCO3^− exchange activity was measured in IL-4-treated HBE cells. F56 was pretreated for 5 minutes. (D, E) Short circuit current record of HNE cells. Representative tracing showing the effect of F56 on the ENaC, CFTR and CaCC channel activity. After exposing to F56 ([…]) for 48 hours, in presence or absence of IL-4, the channel activity was measured. Amiloride (100 μM), forskolin (20 μM, CFTRinh-172 (10 μM) and ATP (100 μM) were added to the apical bath. (F) The AN01, CFTR and ENaC mRNA expression level was determined at the indicated time after treatment of F56 ([…]) by real-time quantitative PCR in IL-4-treated HNE cells (mean±S.E., n=5) * P<0.05, ** P<0.01, *** P<0.001.
Snapwell inserts containing the primary culture of AN01- and CFTR-expressing FRT and human nasal cavity epithelium (HNE) cells were equipped on Ussing chamber (Physiologic Instruments, San Diego, CA, USA). […] Using Labchart Pro 7 (AD Instruments), data were recorded and analyzed. […]

NF-κ = test: IVIS lung fluorescence in LPS-treated NF-κ reporter/SPC-Cre-ERT2 mice; format: in vivo, mouse; details: 10 mg/kg i.p., 6 hours after LPS
Text: From Orient Bio (Sungnam, Republic of Korea), 8-10-week-old wild-type male C57BL/6J mice having a body weight of 20-24 g were purchased. Food and water were provided to all the animals, and the similar optical cycle of day and night was applied. Transfected NF-κ reporter/SPC-Cre-ERT2 mice were used for IVIS in the present invention. Briefly, NF-κ reporter mice contain ROSA26 lox-STOP-lox-cassette inserted between a promoter and NF-κ gene. In general, a stop gene is positioned between loxP and loxP, and NF-κ is not expressed. NF-κ reporter/SPC-Cre-ERT2 mice were obtained by raising ROSA26R mice to surfactant protein C(SPC)-Cre-ERT2 mice. The Cre-ERT2 recombinase activity in these transfected mice was induced by tamoxifen. These NF-κ reporter/SPC-Cre-ERT2 mice express NF-κ activity in the alveolar epithelium by one of dTomato fluorescence or luciferase in presence of tamoxifen. […]
Imaging of living animals and organs was performed using IVIS […] imaging system Caliper Life Sciences, Preston Brook Runcorn, UK). […] Fluorescence excite light was provided by a halogen lamp combined with an appropriate excite filter. […] The fluorescence imaging was obtained with an excitation wavelength of 554 nm and an emission wavelength of 581 nm (dTomato). […] In Living Image software (version 3.2, Caliper Life Sciences), using an area of interest tool, fluorescence was quantified.

HNE cells = test: IL-4 and IL-13-induced goblet cell hyperplasia in HNE cells, PAS staining; format: cell-based, human; details: pretreatment
Protocol: (A) The MUC5AC mRNA expression level was determined at the indicated time after treatment of F56 ([…]) in IL-4 (10 ng/ml)-treated HNE cells (mean±S.E., n=4). (B) Periodic acid-Schiff (PAS) staining showing goblet cell hyperplasia of IL-4 and IL-13 (10 ng/ml)-treated HNE cells in presence or absence of F56 ([…]) at Day 7. (C) Measurement of the total volume of ASL and fluid meniscus in HNE cells expressing wild-type (wt) or mutant (mt) PDS. The HNE cells were treated with IL-4 (10 ng/ml, 48 hours) in presence or absence of […]. (D) Representative image of a transwell insert having normal HNE cells. Arrows indicate the fluid meniscus of HNE cells treated with IL-4 (10 ng/ml, 48 hours) in presence or absence of […] F56. (E) Representative protein expression result of pendrin in IL-4 and IL-13-treated HNE cells. (F) Measurement of the total volume of ASL and fluid meniscus. The HNE cells were treated with IL-13 (10 ng/ml, 48 hours) in presence or absence of 30 mM F56 (mean±S.E., n=3-4). * P<0.05, *** P<0.001. Size bar, 30 μm.
For evaluation of airway inflammation, left lung was fixed in 4% paraformaldehyde overnight and embedded in paraffin. […] The inflammation score showing the severity of bronchial inflammation was evaluated by 3 blind observers using a method reported conventionally. […]

CC(C)(C)c1ccc(C2=NC(=Cc3cccs3)C(=O)O2)cc1 [F56, 2-(4-(tert-butyl)phenyl)-4-(thiophen-2-ylmethylene)oxazol-5(4H)-one]
ion channel activity of AN01, CFTR and ENaC [1]: did not change | fluorescence of the excised lung (NF-κ activation) (NF-κ): inhibited | IL-4 and IL-13-induced goblet cell hyperplasia (HNE cells): significantly reduced
